Data reported in patent publication US20120225093A1, “Abrogating HIV-1 Infection via Drug-Induced Reactivation of Apoptosis” (UNIVERSITY OF MEDICINE AND DENTISTRY OF NEW JERSEY, priority 2010, published 2012).

Tests used:
[1] = human, in vivo, cited from earlier work
HIV-1 = experiment: Persistent PBMC infection model, long-term culture with drug withdrawal; assay type: cell-based; conditions: for rebound of HIV-1 infection after drug withdrawal: off-drug inspection period extending to 12 weeks
Protocol: Uninfected (5×10^6 cells) and infected PBMCs (0.5×10^6 cells) were co-incubated in a 25 ml culture flask at a final concentration of 0.22×10^6 cells/ml. Cultures were allowed to establish productive infection, defined by medium p24 at or above 250 pg/ml, and CPX was added. Cultures were replenished with Medium B and freshly isolated uninfected PBMCs on alternate days. For replacement of Medium B, half of the supernatant was gently exchanged without disturbing the cells, and the drug concentration was adjusted appropriately. For replacement with freshly isolated, stimulated and uninfected PBMCs, half of the cells and supernatant were removed and replaced with 2.5×10^6 cells in the proper volume of Medium B, with adjustment of the drug concentration. Cell-free supernatants were saved for p24 and viral RNA measurements.
p24 core antigen in the supernatant was quantified by ELISA (Retrotek HIV-1 p24™; ZeptoMetrix Corp.; Buffalo, N.Y.). HIV-1 RNA copy number in the supernatant was determined with a PCR-based and FDA-approved assay (Amplicor HIV-1 Monitor™; Roche Diagnostics Corp.; Indianapolis, Ind.). IFN-γ and IL-10 in the supernatant were determined by cytometric bead array (Human Th1/Th2 Cytokine Kit II™; BD Biosciences Pharmingen, San Jose, Calif.).
Next, assays were carried out to examine whether CPX can control established HIV-1 infection in primary cells. Long-term PBMC cultures were employed as a model for on-going, self-sustaining HIV-1 production. As before, infection was initiated by exposure to patient isolate-infected cells. To emulate the bulk flow of susceptible cells from a generative into an infective compartment that occurs in vivo, a replenishment protocol was followed. Freshly isolated uninfected primary cells were infused into the infected cultures at regular intervals during multi-month monitoring of viral parameters. HIV-1 RNA reached the range of 10^6 copies/ml within a week of patient isolate inoculation, and this robust infection was sustained for >3 months (FIG. 14; open squares).

H9-HIV cells = experiment: Intracellular cellular and retroviral proteins by flow cytometry in H9-HIV cells; assay type: cell-based
Protocol: Intracellular antigens were determined, as geometric means of fluorescence, by flow cytometric analysis using a BD FACSCalibur™ and its BD FACStation System™ (Becton Dickinson; San Jose, Calif.). Intracellular antigens were stained according to the instrument producer's instructions.
CD4+ T cells isolated from infected individuals have increased Bcl-2 levels compared to uninfected lymphocytes and some reports implicate HIV-1 Tat in preventing apoptosis in persistently infected cells by inducing the transcription of Bcl-2. Since CPX blocks HIV-1 gene expression, Bcl-2 expression in H9 and H9-HIV cells was determined. […] Retroviral proteins can also control apoptosis. Therefore, assays were carried out to measure the response of individual retroviral proteins in H9-HIV (FIG. 10C) to the shut-down of the HIV-1 promoter by CPX. […] Vpr induces apoptosis via caspase-3 activation.

HIV-1 RNA = experiment: RNase protection assay of HIV RNA from molecular clones in 293T cells; assay type: cell-based; conditions: for accumulation of FF mRNA: pNL4-3-LucE- in 293T; for reduction of spliced and unspliced HIV RNAs: pNL4-3-LucE-, cytoplasmic and nuclear fractions, 12 hr
Protocol: 293T cells (2×10^6 cells) were seeded in 10-cmdiameter plates and transfected 20 hr later by using Transfectene (Bio-Rad) and treated with compounds. Cells were harvested at 15 hr post-transfection and suspended in a low salt buffer (10 mM Tris.HCl pH 7.4, 10 mM NaCl, 1.5 mM MgCl2, and 0.5% NP-40). Cells were vortexed for 10 sec and incubated on ice for 10 min. Cell extracts were centrifuged at 500×g for 3 min, followed by cytoplasmic and nuclear RNA isolation from the supernatant and the pellet, respectively, using Trizol (Invitrogen) according to the manufacturer's instructions.
RPA was performed with 10 μg of cytoplasmic RNA and 5 μg of nuclear RNA, using the RPAIII kit from Ambion (Austin, Tex.) according to the manufacturer's instructions. Synthesis of radiolabeled RNA and protection assays were performed as described in Young et al. Mol Cell Biol 2003, 23:6373-6384. To generate antisense RNA probe against the HIV-1 major splice site, firefly luciferase and Renilla luciferase pBSII-KS+HIV (+80-341), pSP-luc and pSP-rluc were linearized with HindIII, XbaI and BsaI, respectively. The resulting probes were 309, 390 and 245 nt long, respectively. The antisense HIV-1 leader RNA probe complementary to nt+83 to −117 of the LTR was generated by subcloning between the XbaI and HindIII sites of the pcDNA3.1 vector. Antisense probe corresponding to the N terminus of eIF5A was generated by subcloning 250 nt of its cDNA sequence into pcDNA3.1.
Next, the effects of CPX and DEF on viral mRNA expression were examined. […] To determine whether the action of CPX and DEF is exerted at the level of the accumulation, splicing or nucleo-cytoplasmic distribution of HIV RNA, pNL4-3-LucE- was transfected into 293T cells and monitored spliced and unspliced HIV RNA after drug treatment. RNase protection assays were carried out using a probe complementary to the 5′ region of all HIV-1 transcripts (Zheng et al. Nat Cell Biol 2003, 5:611-618). The probe spans the major splice donor site so two sizes of protected fragments are generated: unspliced RNA protects an RNA fragment 50 nucleotides (nt) longer than that from spliced RNAs (FIG. 4A). CPX and DEF, but not P2, reduced the level of both spliced and unspliced RNAs by ˜50% (FIG. 4B). […] In contrast, the production of Renilla luciferase RNA driven by the CMV promoter was unchanged in the nucleus and cytoplasm after drug treatment (FIG. 4B). […]
The rev-defective molecular clone pMRev(−) contains the entire HIV-1 genome but Rev expression is prevented by substitutions in its initiation codon. To compare the inhibitory effect of CPX and DEF in the presence and absence of Rev, cells were transfected with pMRev(−), either with or without a Rev expression vector, and RNA was analyzed by RPA as above. […]

[2] = CPX 30 μM from day 7 for one month, isolate #990,010

**Q.** For `Cc1c(O)c(=O)ccn1C` [DEF, 3-hydroxy-1,2-dimethylpyridin-4(1H)-one], which concentration in serum ([1]; po) is on record?
**A.** The concentration in serum was no less than 250 µM.

**Q.** What about the plasma levels ([1]; po) of the same compound?
**A.** The plasma levels was “up to 350 μM”.

**Q.** What about the “rebound of HIV-1 infection after drug withdrawal” value (HIV-1) of the same compound?
**A.** Its value is “productive infection does not return after drug removal”.

**Q.** What about the “response of retroviral proteins Rev, p24, Tat, Vpr” value (H9-HIV cells; DEF) of the same compound?
**A.** The value was “sparing Rev, decreasing p24 and Tat, and increasing Vpr”.

**Q.** And the “accumulation of FF mRNA” value (HIV-1 RNA)?
**A.** Its value is “decreased accumulation of FF mRNA”.

**Q.** And the “reduction of spliced and unspliced HIV RNAs” value (HIV-1 RNA)?
**A.** The value was roughly 50%.

**Q.** Which systemic absorption [1] does the source give for `Cc1cc(C2CCCCC2)n(O)c(=O)c1` [CPX, 6-cyclohexyl-1-hydroxy-4-methylpyridin-2[1H]-one] here?
**A.** Its systemic absorption is “miniscule systemic absorption”.

**Q.** And the “day after which viral RNA was not detected” value (HIV-1; CPX 30 μM from day 7)?
**A.** Its value is greater than 38 days.

**Q.** What about the “day after which viral protein was not detected” value (HIV-1; CPX 30 μM from day 7) of the same compound?
**A.** Its value is greater than 21 days.

**Q.** What about the “decline in HIV-1 RNA levels” value (HIV-1; CPX 30 μM from day 7) of the same compound?
**A.** The value was “four orders of magnitude”.

**Q.** And the “level of p24” value (HIV-1; [2])?
**A.** Its value is “to the limit of detectability”.

**Q.** And the “level of viral RNA” value (HIV-1; [2])?
**A.** Its value is “to the limit of detectability”.

**Q.** And the “rebound of HIV-1 infection after drug withdrawal” value (HIV-1)?
**A.** The value was “productive infection does not return after drug removal”.

**Q.** And the “active caspase-3” value (H9-HIV cells; 30 μM CPX, 24 and 48 hr)?
**A.** The value was “the increase in Vpr paralleled that of active caspase-3”.

**Q.** And the “intracellular Rev” value (H9-HIV cells; 30 μM CPX, 24 and 48 hr)?
**A.** The value was “only marginally affected”.

**Q.** And the “intracellular Tat” value (H9-HIV cells; 30 μM CPX, 24 and 48 hr)?
**A.** The value was “similarly reduced”.

**Q.** And the “increase of Vpr level” value (H9-HIV cells; 30 μM CPX, within 24 hr)?
**A.** The value was roughly 15%.

**Q.** What about the “reduction of intracellular p24” value (H9-HIV cells; 30 μM CPX, within 24 hr) of the same compound?
**A.** Its value is 30%.

**Q.** And the “increase of Vpr level” value (H9-HIV cells; 30 μM CPX, within 48 hr)?
**A.** The value was roughly 70%.

**Q.** What about the “reduction of intracellular p24” value (H9-HIV cells; 30 μM CPX, within 48 hr) of the same compound?
**A.** The value was 70%.

**Q.** And the “dose-dependent change in Bcl-2 content” value (H9-HIV cells; 24 hr, H9 and H9-HIV)?
**A.** The value was “neither of these measures achieved statistical significance”.

**Q.** And the “cells positive for Bcl-2” value (H9-HIV cells; CPX 24 hr, irrespective of infection (H9 and H9-HIV))?
**A.** Its value is roughly 35%.

**Q.** And the “accumulation of FF mRNA” value (HIV-1 RNA)?
**A.** The value was “decreased accumulation of FF mRNA”.

**Q.** And the “reduction of spliced and unspliced HIV RNAs” value (HIV-1 RNA)?
**A.** Its value is roughly 50%.
